Values quoted from earlier work as cited in patent US20210128561A1, “MRGX Receptor Antagonists” (Rheinische-Friedrich-Wilhelms-Universität Bonn, priority 2019, published 2021).
Read-outs that look alike come from different tables or passages of the source.

Tests used:
MrgX2 [1] = target: T1, MrgX2 (Homo sapiens, UniProt Q96LB1); conditions: versus CST-14, calcium mobilization; cited from earlier work
T1 construct: host or cells: recombinant HEK cells (A3); CHEM1 cells recombinantly expressing MrgX2 (A11)
T1 sequence (Q96LB1 1-330): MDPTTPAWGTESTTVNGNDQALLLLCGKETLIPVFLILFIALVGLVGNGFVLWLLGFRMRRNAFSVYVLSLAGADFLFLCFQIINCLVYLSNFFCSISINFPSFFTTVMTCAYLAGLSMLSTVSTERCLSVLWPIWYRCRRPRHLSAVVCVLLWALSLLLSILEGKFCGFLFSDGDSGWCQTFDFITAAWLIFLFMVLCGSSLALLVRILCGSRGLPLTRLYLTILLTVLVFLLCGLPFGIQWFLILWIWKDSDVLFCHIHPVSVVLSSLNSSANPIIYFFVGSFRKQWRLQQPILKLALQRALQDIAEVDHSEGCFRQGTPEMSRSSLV

MrgX2 [2] = target: T1, MrgX2; conditions: calcium assays; cited from earlier work
MrgX2 [3] = target: T1, MrgX2; conditions: read-out: EC50 value; calcium assays, MrgX2 activation; cited from earlier work
MrgX2 [4] = target: T1, MrgX2; conditions: calcium mobilization assay; cited from earlier work
MrgX2 [5] = target: T1, MrgX2; conditions: β-arrestin assay; cited from earlier work
human LAD2 mast cells = conditions: cited from earlier work
[6] = tested on: CHEM1 cells without MrgX2 overexpression; conditions: cited from earlier work
MrgX2 [7] = target: T1, MrgX2; conditions: CHEM1 cell line recombinantly expressing MrgX2; cited from earlier work

CC(=O)N1c2ccccc2Nc2ccccc21 [Compound 1, 1-(5H-10λ^2-phenazin-5-yl)ethan-lone]
IC50 (MrgX2 [1]): 1600 nM

C[C@@H]1C[C@H]2Cc3ncc(-c4ccc5c(n4)C[C@@H]4C[C@@H](C)C[C@]56NCCC[C@H]46)cc3[C@]3(C1)NCCC[C@H]23 [Complanadine A]
EC50 (MrgX2 [2]): 5.5 µM

O=c1c2ccccc2[nH]c(=S)n1Cc1ccccn1 [compound 2, 3-(pyridine-2-ylmethyl)-2-thioxo-2,3-dihydro-4H-1λ^2-quinazolin-4-one]
IC50 (MrgX2 [1]): 2500 nM

COc1ccc2c(c1)[C@@]13CCCC[C@H]1[C@@H](C2)NCC3 [3-methoxymorphinan]
EC50 (MrgX2 [3]): 4.7 µM

CN1CC[C@]2(c3cccc(O)c3)Cc3nc4ccccc4cc3C[C@H]2C1 [TAN-67]
EC50 (MrgX2 [4]): ~1000 nM | EC50 (MrgX2 [5]): ~1000 nM

CN1CC[C@@]23CCCC[C@@H]2[C@@H]1Cc1ccc(O)cc13 [dextrorphan]
EC50 (MrgX2 [3]): 1.4 µM

CN1CC[C@]23c4c5ccc(O)c4O[C@H]2[C@@H](O)C=C[C@H]3[C@H]1C5 [morphine]
EC50 (MrgX2 [3]): 4.5 µM

O=C(/C=C/c1ccc(O)cc1)c1ccc(O)cc1O [isoliquiritigenin, Isoliquiritigenin]
β-hexosaminidase release of compound 48/80 and isoliquiritigenin together (human LAD2 mast cells; 50 μM isoliquiritigenin vs. 30 μg/mL (≈31.2 μM) compound 48/80, LAD2): 40%

C[C@H]1O[C@@H](O[C@H]2CC[C@@]3(C)[C@@H](CC[C@]4(C)[C@@H]3C=C[C@]35OC[C@@]6(CCC(C)(C)C[C@H]63)[C@@H](O)C[C@]54C)[C@]2(C)CO)[C@H](O)[C@@H](O[C@@H]2O[C@H](CO)[C@@H](O)[C@H](O)[C@H]2O)[C@H]1O [saikosaponin A, Saikosaponin A]
β-hexosaminidase release of substance P and saikosaponin A together (human LAD2 mast cells; 0.50 μM saikosaponin A vs. 30 μg/mL (≈31.2 μM) compound 48/80, LAD2): 30%

Gln-D-Trp(Formyl-)Phe-benzylester [QWF]
β-hexosaminidase release of SP and QWF together (human LAD2 mast cells; 100 μM QWF vs. 1 μM substance P, LAD2): 20%

B1: CXCL14: small chemokine (C-X-C motif) ligand 14 (protein, UniProt O95715 35-111, looked up)
C-X-C motif chemokine 14: SKCKCSRKGPKIRYSDVKKLEMKPKYPHCEEKMVIITTKSVSRYRGQEHCLHPKLQSTKRFIKWYNAWNEKRRVYEE
calcium release [6]: not to mediate calcium release | EC50 (MrgX2 [7]): 570 nM
